Consider 19 molecules from patent publication US5654178A, “Immunoassay for tetrachloroisophthalonitrile (chlorothalonil), its derivatives and breakdown products” (ISK Biosciences Corporation, priority 1995, dated 1997).

In one series the test system is mAb 6F9. The series is described as follows: TCPN EIA, reactivity profile with monoclonal antibody. To be noted: for IC50: 10 min; for % Cross Reactivity: relative to TCPN. The class given is binding, mouse. As for the experimental part:
(§1) The following immunoassay protocol was followed
(§2) 1. Microplates were prepared by binding screening conjugate Cl-O-AHT to the polystyrene surface.
(§3) 2. An appropriately diluted sample (200 μl) and the anti-TCPN antibody conjugated to horse radish peroxidase (50 μl) were added and incubated for 10 minutes.
(§4) 3. The wells were rinsed, and 200 μl of substrate, tetramethyl benzidine (TMB), was added to the wells.
(§5) 4. The plates were incubated for a further 10 minutes and 50 μl of stop solution (1.5% NaF) was added.
(§6) 5. The color reaction was read by measuring absorbance at 650 nm.
(§7) The cross reactivity of various TCPN derivatives and other benzene ring-based haptens were assessed using the above antibody preparations.

The subject of series [1] is polyclonal anti-TCPN antibody. Briefly: TCPN EIA, reactivity profile with polyclonal antibody. It is filed as binding. To be noted: for IC50: 10 min; for % Cross Reactivity: relative to TCPN. As for the experimental part:
as §1, §2, §3, §4, §5, §6, §7

A further series can be described thus: Solubility. It is filed as physicochemical.
The conditions of series [2]: cited from earlier work.
The test system of another series is experimental animals. To be noted: cited from earlier work.
The next series has as its system human skin. The conditions noted are these: cited from earlier work.
Where [3] appears, read: water or polar organic solvents.

In brackets after ≈: the same amount, converted by molar mass. Like-named read-outs stand apart in the source and are kept apart here.

As to `N#Cc1c(N)c(Cl)c(Cl)c(C#N)c1Cl` [4-aminoTCPN, 4-amino-2,5,6-trichloroisophthalonitrile], the IC50 came out at 2.4 ppb with mAb 6F9 and 43 ppb in series [1]. Besides, the “% Cross Reactivity” value came to 92% in the series with mAb 6F9 and 12% in series [1].
Take `N#Cc1c(O)c(Cl)c(Cl)c(C#N)c1Cl` [4-hydroxyTCPN, 4-hydroxy-2,5,6-trichloroisophthalonitrile]: in the series with mAb 6F9, the IC50 was found to be 8.0 ppb and the “% Cross Reactivity” value is recorded as 28%. In series [1], the IC50 came out at 1010 ppb and the “% Cross Reactivity” value is recorded as 0.5%.
For the molecule `N#Cc1c(S)c(Cl)c(Cl)c(C#N)c1Cl` [4-mercaptoTCPN, 4-mercapto-2,5,6-trichloroisophthalonitrile], in the series with mAb 6F9, the IC50 is listed as 4.8 ppb and the “% Cross Reactivity” value is 46%. For the same molecule, in series [1], the IC50 is 10 ppb and the “% Cross Reactivity” value is recorded as 60%.
On to `N#Cc1c(Cl)c(N)c(Cl)c(C#N)c1Cl` [5-amino-TCPN, 5-amino-2,4,6-trichloroisophthalonitrile], for which, in the series on mAb 6F9, the IC50 worked out at 1.9 ppb and the “% Cross Reactivity” value worked out at 116%. Also, in series [1], the IC50 is reported as 43 ppb and the “% Cross Reactivity” value was 12%.
Consider `N#Cc1c(Cl)c(O)c(Cl)c(C#N)c1Cl` [5-hydroxyTCPN, 5-hydroxy-2,4,6-trichloroisophthalonitrile], for which the results for the IC50 (with mAb 6F9; in series [1]) were 7.0 ppb and 800 ppb, respectively. Moreover, the “% Cross Reactivity” value was 31% with mAb 6F9 and 0.6% in series [1].
In the case of `CCc1cccc(CC)c1N(COC)C(=O)CCl` [Alachlor], the IC50 (in the series on mAb 6F9; in series [1]) was > 10^4 ppb in each case. The “% Cross Reactivity” value (in the series on mAb 6F9; in series [1]) was below 0.01% in each case.
With `CCNc1nc(Cl)nc(NC(C)C)n1` [Atrazine], in the series with mAb 6F9, the IC50 is on record as > 10^4 ppb and the “% Cross Reactivity” value is given as below 0.01%. Moreover, in series [1], the IC50 is > 10^4 ppb and the “% Cross Reactivity” value is recorded as below 0.01%.
Take `N#Cc1c(Cl)c(C#N)c(Cl)c(OC(=O)NCC(=O)O)c1Cl` [BK-489-35]: the solubility result in the series “Solubility” (setting [3]) is on record as “extremely low solubility”.
Turning to `N#Cc1c(Cl)c(C#N)c(Cl)c(OC(=O)CC(=O)O)c1Cl` [BK-489-36], in “Solubility” (dmf, organic solvent or mixture, read-out: solubility), the solubility was found to be 4500 µg/mL (≈ 13.5 mM).
As to `N#Cc1c(Cl)c(C#N)c(Cl)c(NC(=O)NCC(=O)O)c1Cl` [BK-489-41], the solubility result in the series “Solubility” (setting [3]) is on record as “high solubility”.
Consider `CCCCNC(=O)n1c(NC(=O)OC)nc2ccccc21` [Benomyl], for which, in the series with mAb 6F9, the IC50 is on record as > 10^4 ppb and the “% Cross Reactivity” value is below 0.01%. In series [1], the IC50 is recorded as > 10^4 ppb and the “% Cross Reactivity” value was below 0.01%.
For the molecule `Clc1c(Cl)c(Cl)c(Cl)c(Cl)c1Cl` [HCB, hexachlorobenzene], the IC50 (with mAb 6F9; in series [1]) was > 10^4 ppb each time. In addition, the “% Cross Reactivity” value (in the series with mAb 6F9; in series [1]) was below 0.01% each time.
`COC(=O)Nc1nc2ccccc2[nH]1` [MBC, carbendazim]: in the series on mAb 6F9, the IC50 is reported as > 10^4 ppb and the “% Cross Reactivity” value was below 0.01%. In addition, in series [1], the IC50 was > 10^4 ppb and the “% Cross Reactivity” value is below 0.01%.
With `CCc1cccc(C)c1N(C(=O)CCl)C(C)COC` (stereo not drawn) [Metolachlor], the IC50 (in the series with mAb 6F9; in series [1]) was > 10^4 ppb in each case. Further, the “% Cross Reactivity” value (in the series with mAb 6F9; in series [1]) was below 0.01% in each case.
With `N#Cc1c(Cl)c(Cl)c(Cl)c(Cl)c1Cl` [PCBN, pentachlorobenzonitrile], in the series on mAb 6F9, the IC50 is recorded as 30 ppb and the “% Cross Reactivity” value worked out at 7.3%. Besides, in series [1], the IC50 came out at 60 ppb and the “% Cross Reactivity” value is recorded as 8.3%.
For `N#Cc1c(Cl)c(Cl)c(Cl)c(C#N)c1Cl` [TCPN, tetrachloroisophthalonitrile], the IC50 with mAb 6F9 stood at 2.2 ppb; in series [1], 5.0 ppb. Besides, the “% Cross Reactivity” value (with mAb 6F9; in series [1]) was 100% each time. Also, in series [2], the solubility in water entry is “practically insoluble in water”. The sensitizing properties result with experimental animals and with human skin (tested directly on human skin) was “sensitizing properties” throughout. For the same molecule, the allergic reaction result in the series on human skin (exposed humans) is recorded as “stimulates an allergic reaction, leading to an IgE antibody response”. The contact dermatitis entry in the series on human skin (production plant and field) is recorded as “associated with contact dermatitis”.
Consider `CCCN(CCC)c1c([N+](=O)[O-])cc(C(F)(F)F)cc1[N+](=O)[O-]` [Trifluralin], for which the IC50 (with mAb 6F9; in series [1]) was > 10^4 ppb throughout. Besides, the “% Cross Reactivity” value (with mAb 6F9; in series [1]) was below 0.01% in each case.
In the case of `NC(=O)c1c(Cl)c(Cl)cc(C(=O)O)c1Cl` [acid/amide TCPN, 3-carbamyl-2,4,5-trichlorobenzoic acid], in the series on mAb 6F9, the IC50 is recorded as > 10^4 ppb and the “% Cross Reactivity” value was below 0.01%. In series [1], the IC50 is reported as > 10^4 ppb and the “% Cross Reactivity” value was below 0.01%.
For `N#Cc1c(Cl)c(Cl)c(Cl)c(C(N)=O)c1Cl` [amide TCPN, 2,4,5,6-tetrachloro-3-cyanobenzamide], in the series with mAb 6F9, the IC50 stood at 800 ppb and the “% Cross Reactivity” value is listed as 2.8%. Also, in series [1], the IC50 was 700 ppb and the “% Cross Reactivity” value is given as 0.7%.

What is called solubility is how much of the substance goes into solution per volume.
